Experimental data: patent US4835252A, “Vasoactive intestinal peptide analogs” (The Salk Institute Biotechnology/Industrial Associates, Inc., priority 1987, dated 1989)
pIC50: −log10 of the molar value. No end group written: not given here.

Experiments:
[1] = target: VIP receptors in rat lung membrane
Method: Radioreceptor assays were carried out to determine the affinities of analogs of Example I for VIP receptors in rat lung membrane, following Leroux et al., Endocrinology 114, 1506-1512 (1984).
The following buffers were prepared:
Buffer A: 250 mM sucrose, 5 mM MgCl2, 25 mM Tris, pH 7.4
Buffer B: 5 mM MgCl2, 25 mM Tris, pH 7.4
Buffer C: 25 mM Tris, 5 mM MgCl2, 1 mg/ml bacitracin, 2 mg/ml bovine serum albumin ("BSA"), pH 7.4
Phenylmethylsulfonyl fluoride ("PMSF") was added, to a final concentration of 1 mM, to the buffers immediately prior to their use.
^125 I-labeled, human VIP (^125 I-VIP) was purchased from New England Nuclear (Boston, Mass., U.S.A.). The peptide as purchased was diluted to 10^-5 Ci/ml with Buffer C and stored in 25 ul or 50 ul aliquots at -20° C., which were subsequently diluted with Buffer C, as described below, for the assays.
Rat lung membrane was prepared for the assay as follows, following Leroux et al., supra: Five female Sprague-Dawley rats (200-250 g) were sacrificed and their hearts perfused with iced, phosphate-buffered saline (PBS) through the right atrium (approximately 30 ml PBS per rat). The lungs, which were whitened, were then removed and placed directly in iced PBS and any blood was rinsed from the tissue. The lung tissue was then transferred to a weighing device on ice; blood vessels, fat and the like were removed from the tissue; and the tissue was blotted and weighed. The lung tissue was then transferred to a 50 cm^3 Falcon tube with 2 ml of Buffer A per g lung tissue (approximately 25 ml Buffer A) and homogenized at 4° C. 1 minute in a polytron (Brinkmann Instruments Co., Westbury, N.Y., U.S.A.) and then with a glass/teflon homogenizer (approximately 5-6 strokes). The homogenate was filtered through two layers of cheesecloth, and the filtrate was then transferred to tubes for centrifugation at 30,000×g for 10 minutes. The pellets were then resuspended in approximately 70 ml of Buffer B using a glass/teflon homogenizer and the resulting suspensions were again centrifuged at 30,000×g for ten minutes. The resulting pellets were resuspended in 50 ml of Buffer B using a glass/teflon homogenizer. The suspension was divided into 1.0 ml aliquots in microfuge tubes, which were quickly frozen and stored on dry ice until use.
When used, an aliquot of suspension was thawed and microfuged at 4° C. for several minutes to pellet suspended material. The supernatant was carefully removed and the pellet resuspended in 1 ml of Buffer C.
Prior to use of a VIP receptor-containing suspension in an assay, the protein concentration was adjusted to 2 mg/ml by addition of Buffer C. Then 100 ul of this suspension (2 mg/ml) was combined with 100 ul of solution of ^125 I-VIP, 100 ul of solution of the VIP or analog thereof being assayed and 200 ul of Buffer C; consequently, the concentration of protein from the rat lung VIP receptor preparations used in the assays was 0.4 mg/ml.
In the radioreceptor assays, the ability of analog to displace ^125 I-VIP from binding in the receptor preparation was measured by a standard procedure. For each analog, and naturally occurring human VIP as standard, a series of solutions, of 500 ul total volume in Buffer C, containing various concentrations of analog or standard (between about 10^-11 M and 10^-6 M), ^125 I-VIP at 100 cpm/ul (about 2×10^-10 M), and receptor preparation (0.4 mg protein/ml) were assayed.

[2] = Stability against proteolytic degradation in crude rat-lung homogenate; settings: 10^-5 M peptide in crude rat lung homogenate, 37° C., intact peptide by HPLC
[3] = system: dispersed guinea pig pancreatic acinar cells; assay: Amylase-release assay with dispersed pancreatic acinar cells; format: cell-based; settings: ED50 for the human VIP standard divided by ED50 for the analog; 30 minutes at 37° C.
Method: The bioactivity of analogs of Example I, chicken VIP, guinea pig VIP, and human VIP without amidation at the carboxy-terminus was determined, relative to that of naturally occurring human VIP, by an amylase-release assay employing dispersed guinea pig pancreatic acinar cells. The assay was essentially that described by Peikin et al., Am. J. Physiol. 235, E743-E749 (1978).
For the assays conducted each day, dispersed acinar cells, free of debris, were freshly prepared from a pancreas of a male or female guinea pig (120-150 gm), following generally the method described by Peikin et al., supra.
The procedure employed a "standard incubation medium," which consisted of 95 mM NaCl; 6 mM KCl; 2.5 mM NaH2 PO4; 5 mM each of sodium pyruvate, sodium fumarate and sodium glutamate; 0.5 mM CaCl2, 1.0 mM MgCl2, 11.5 mM glucose, 0.05 mg/ml glutamine; amino acids and vitamius from Eagle's Minimum Essential Medium at their concentration in such Eagle's Medium; 25 mM HEPES; 0.08 mg/ml soybean trypsin inhibitor (Calbiochem); pH 7.4.
The animal was sacrificed, its pancreas removed and the pancreas trimmed of fat, blood vessels, duodenum and the like. With a syringe with a 25 gauge needle, 10.0 ml of collagenase solution (standard incubation medium with 0.2 mg/ml C. histolyticum collagenase and 2 mg/ml BSA (Fraction V) (both from Calbiochem, San Diego, California, U.S.A.)) was injected into the pancreas, which was then transferred to a 25 ml flask, gassed with 100% O2, and shaken on a shaker as rapidly as possible for 10 minutes at 37° C. Then the liquid was poured off and replaced with another 5.0 ml of collagenase solution, and the gassing with 100% O2 and shaking for 10 minutes at 37° C. were repeated. The replacement of liquid, gassing with 100% O2 and shaking at 37° C. were again repeated. If, by visual inspection, digestion appeared to be incomplete, vigorous shaking by hand with 1 minute incubation at 37° C. were repeated until digestion was complete. The mass was then broken up further by passing chunks through a large bore serological pipette, and then a small bore pipette. Very large chunks, fur and debris were removed with a long Pasteur pipette. Then half of the resulting acinar cell suspension was placed into each of two 15 ml clear, polystyrene tubes, each containing 4.0 ml of 4.0% BSA solution (standard incubation medium with 40 mg/ml BSA (Fraction V) and 2 mM, rather than 0.5 mM, CaCl2). Both combinations were mixed thoroughly and debris was again removed. The resulting suspensions were spun at medium speed in a tabletop centrifuge for 30 seconds, the supernatants were discarded, and the pellets were resuspended in 4.0 ml of 4.0% BSA and 4.0 ml of 0.2% BSA solution (standard suspension medium with 2 mg/ml BSA (Fraction V) and 2 mM, rather than 0.5 mM, CaCl2), the suspension was again cleaned of debris, and then spun as above with the tabletop centrifuge. The supernatants were discarded and the pellets again washed with 4.0 ml of 4% BSA solution and repelleted as above with the tabletop centrifuge. Again, the supernatants were discarded and the pellets were carried into one 250 ml Erlenmeyer flask, to which 50.0 ml of 1% BSA solution (standard incubation medium with 10 mg/ml BSA (Fraction V) and 5 mM theophylline) had been added. When the cells were not used immediately, the suspension was gassed with 100% O2. The preparation was acceptable for use in an assay only if the cells were fine and well dispersed and there was nothing visible in the preparation other than cells. […]

| HALF-LIFE [2] | RELATIVE IC50 [1] | Compound | pIC50 ([1]; read-out: concentration required to displace half of the 125I-VIP / occupy half the receptor sites, rat lung membrane receptor preparation at 0.4 mg protein/ml) | Potency (Amylase Release Assay) [3] |
| --- | --- | --- | --- | --- |
| – | – | CC[C@H](C)[C@H](NC(=O)[C@H](CO)NC(=O)[C@H](CC(N)=O)NC(=O)[C@H](CC(C)C)NC(=O)[C@H](Cc1ccc(O)cc1)NC(=O)[C@H](CCCCN)NC(=O)[C@H](CCCCN)NC(=O)[C@@H](NC(=O)[C@H](C)NC(=O)[C@H](CCSC)NC(=O)[C@H](CCC(N)=O)NC(=O)[C@H](CCCCN)NC(=O)[C@H](CCCNC(=N)N)NC(=O)[C@H](CC(C)C)NC(=O)[C@H](CCCNC(=N)N)NC(=O)[C@@H](NC(=O)[C@H](Cc1ccc(O)cc1)NC(=O)[C@H](CC(N)=O)NC(=O)[C@H](CC(=O)O)NC(=O)[C@@H](NC(=O)[C@H](Cc1ccccc1)NC(=O)[C@@H](NC(=O)[C@H](C)NC(=O)[C@H](CC(=O)O)NC(=O)[C@H](CO)NC(=O)[C@@H](N)Cc1c[nH]cn1)C(C)C)[C@@H](C)O)[C@@H](C)O)C(C)C)C(=O)N[C@@H](CC(C)C)C(=O)N[C@@H](CC(N)=O)C(=O)O [reference compound] | – | 0.4 |
| 2.5 min | 4.2 | H-HSDAVFSDSYSRFRRSMAVRRYLSNVLT-NH2 [Analog V, HSDAVFSDSYSRFRRSMAVRRYLSNVLT-(NH2)i] | – | 0.2 |
| – | 20 | HSDALFTDTYTRLRKQMAMKKYLNSVLN-NH2 [Guinea Pig VIP, reference compound] | – | 0.05 |
| – | 1.4 | HSDAVFTDNYSRFRKQMAVKKYLNSVLT-NH2 [Chicken VIP, reference compound] | – | 0.5 |
| – | 175 | HSDAVFTDNYSRFRKQMAVRRFVNSVLT-NH2 [Analog IX, HSDAVFTDNYSRFRKQMAVRRFVNSVLT-(NH2)i] | – | 7 × 10^-4 |
| – | 86 | HSDAVFTDNYSRYRRQMAVKKYLNSVLT-NH2 [Analog VII, HSDAVFTDNYSRYRRQMAVKKYLNSVLT-(NH2)i] | – | 1.0 × 10^-3 |
| 4 min | 2350 | HSDAVYSDSFRSYRSRVALSRFVRNVVT-NH2 [Analog III, HSDAVYSDSFRSYRSRVALSRFVRNVVT-(NH2)i] | – | 1.0 × 10^-3 |
| 4 min | 140 | HSDAVYSDSFSRYRRSVALRRFVSNVVT-NH2 [Analog I, HSDAVYSDSFSRYRRSVALRRFVSNVVT-(NH2)i] | – | 5 × 10^-4 |
| 7.5 min | 550 | HSDAVYSDSFSRYRSRVALSRFVRNVVT-NH2 [Analog II, HSDAVYSDSFSRYRSRVALSRFVRNVVT-(NH2)i] | – | 1 × 10^-4 |
| 5 min | 1040 | HSDAVYTDNFSRYRKQVALKKFVNSVVT-NH2 [Analog IV, HSDAVYTDNFSRYRKQVALKKFVNSVVT-(NH2)i] | – | 4.4 × 10^-3 |

| Compound | HALF-LIFE [2] | RELATIVE IC50 [1] | pIC50 ([1]; read-out: concentration required to displace half of the 125I-VIP / occupy half the receptor sites, rat lung membrane receptor preparation at 0.4 mg protein/ml) | Potency (Amylase Release Assay) [3] |
| --- | --- | --- | --- | --- |
| CC[C@H](C)[C@H](NC(=O)[C@H](CO)NC(=O)[C@H](CC(N)=O)NC(=O)[C@H](CC(C)C)NC(=O)[C@H](Cc1ccc(O)cc1)NC(=O)[C@H](CCCCN)NC(=O)[C@H](CCCCN)NC(=O)[C@@H](NC(=O)[C@H](C)NC(=O)[C@H](CCSC)NC(=O)[C@H](CCC(N)=O)NC(=O)[C@H](CCCCN)NC(=O)[C@H](CCCNC(=N)N)NC(=O)[C@H](CC(C)C)NC(=O)[C@H](CCCNC(=N)N)NC(=O)[C@@H](NC(=O)[C@H](Cc1ccc(O)cc1)NC(=O)[C@H](CC(N)=O)NC(=O)[C@H](CC(=O)O)NC(=O)[C@@H](NC(=O)[C@H](Cc1ccccc1)NC(=O)[C@@H](NC(=O)[C@H](C)NC(=O)[C@H](CC(=O)O)NC(=O)[C@H](CO)NC(=O)[C@@H](N)Cc1c[nH]cn1)C(C)C)[C@@H](C)O)[C@@H](C)O)C(C)C)C(=O)N[C@@H](CC(C)C)C(=O)N[C@@H](CC(N)=O)C(N)=O [Human VIP, HSDAVFTDNYTRLRKQMAVKKYLNSILN-NH2, reference compound] | 16 min | – | ~9.30 | 1.0 |
